biological target: Prothrombin (Homo sapiens, UniProt P00734); test: Inhibition of human thrombin after 15 mins by standard chromogenic assay

Point of comparison: `N=C(N)NOCCNC(=O)Cc1c(Cl)ccc(NS(=O)(=O)c2ccccc2)c1F`, Ki 1280 nM. Against it:
- Cc1nc(N)ccc1CNC(=O)Cc1c(Cl)ccc(NCC(F)(F)c2ccc(Cl)cn2)c1F — 1800-fold lower, 0.7 nM
- Cc1nc(N)ccc1CNC(=O)Cc1c(Cl)ccc(NCC(F)(F)c2ccccc2)c1F — 120-fold lower, 10.3 nM
- NC(N)=NOCCNC(=O)Cc1c(Cl)ccc(NCC(F)(F)c2cccc3cnccc23)c1F — 270-fold lower, 4.7 nM
- Cc1nc(N)ccc1CNC(=O)Cc1c(Cl)ccc(NCC(F)(F)c2ccc(Cl)c[n+]2[O-])c1F — 1400-fold lower, 0.9 nM
- N=C(N)NOCCNC(=O)Cc1c(Cl)ccc(NCC(F)(F)c2cccc3cccnc23)c1F — 470-fold lower, 2.7 nM
- N=C(N)NOCCNC(=O)Cc1c(Cl)ccc(NCC2(c3ccccn3)CC2)c1F — 22-fold lower, 57 nM
- NC(N)=NOCCNC(=O)Cc1c(Cl)ccc(NCC(F)(F)c2cccnc2)c1F — 38-fold lower, 33.9 nM
- NC(N)=NOCCNC(=O)Cc1c(Cl)ccc(NCC(F)(F)c2ccc(Cl)cn2)c1F — 710-fold lower, 1.8 nM
- NC(N)=NOCCNC(=O)Cc1c(Cl)ccc(NCC(F)(F)c2ccccn2)c1F — 150-fold lower, 8.6 nM
- CC(C)(CNc1ccc(Cl)c(CC(=O)NCCONC(=N)N)c1F)c1cccnc1 — 10-fold lower, 128 nM
- N=C(N)NOCCNC(=O)Cc1c(Cl)ccc(NCC2(c3cccnc3)CC2)c1F — 9-fold lower, 142 nM
- CC(C)(CNc1ccc(Cl)c(CC(=O)NCCONC(=N)N)c1F)c1ccccn1 — 22-fold lower, 58 nM
- N=C(N)NOCCNC(=O)Cc1c(Cl)ccc(NCC(F)(F)c2cnc3ccccc3c2)c1F — 7.6-fold lower, 169 nM
